This is an account of results in patent US20190225650A1, “PEPTIDOMIMETIC MACROCYCLES AND USE THEREOF IN REGULATING HIF1ALPHA” (AILERON THERAPEUTICS, INC., priority 2013, published 2019).

Bridge positions count the residues as written; N and C are the ends. Square brackets hold non-standard residues; d marks the D form. Peptide text beside a SMILES is read from it. R8 = C=CCCCCCC[C@@](C)(N)C(=O)O; S5 = C=CCCC[C@](C)(N)C(=O)O; Nle = CCCC[C@H](N)C(=O)O

Assay [1] deals with HRE-bla ME-180 cells. In words: Reporter gene assay (HRE-bla ME-180 HIF reporter, GeneBLAzer). It is filed as cell-based, human. The conditions noted are these: for EC50: 24 hour normoxia. The gist of the method:
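A FRET β-lactamase readout of HIF transcription was used. After compound treatment in 0.3% DMSO/media under normoxic conditions, 20 μl of 6× LiveBLAzer-FRET B/G (CCF4-AM) substrate was added. Plates sat 3 hr at room temperature in the dark and were read at 409 Ex/460Em and 409Ex/530Em on a Synergy 2. Inhibition was compared against DMSO vehicle controls, with chetomin as positive control.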
A general note: Reporter assays use an easily measured gene product as a stand-in for the process of interest.

Assay [2] concerns HRE-bla ME-180 cells. In words: Cell proliferation assay (viability, MTT, 1% FBS). It counts as cell-based, human. The gist of the method:
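ME-180 cells (2×10^4/well) in Opti-MEM with 1% FBS were pretreated 16 h under normoxia (21% O2), vehicle 0.5% DMSO final. Incubation then continued under normoxia or hypoxia (1% O2); viable cells quantified by MTT-type CellTiter 96 assay.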

The target in assay [3] is T1, flag-tagged HIF1α (AA 786-826) / His6-tagged p300 (AA 323-423) complex (Homo sapiens, UniProt Q09472).
T1 construct: His6-tagged p300 (AA 323-423); made in house; host or cells: E. coli (pETDuet vector)
In words: HIF1α p300 displacement assay (TR FRET, +CHAPS). It is filed as binding. The following applies: read-out: IC50 (nM) (HIF1α_p300 Displacement + CHAPS). The gist of the method: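 The co-expressed flag-HIF1α (786-826)/His6-p300 (323-423) complex, purified from E. coli with 0.1 mM ZnSO4, was used at 300 nM final with competitor peptides for 1 h at room temperature. Buffer was 150 mM NaCl, 20 mM HEPES pH 7.4, 7.5 mM CHAPS and 1 mM DTT. Anti-Flag-K (0.5 μM) and anti-His-D2 (4 nM) were then added for 2 h, and IC50s were fitted from the TR-FRET ratio.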
A general note: In TR-FRET formats the signal depends on donor and acceptor labels being close together.

The EC50 is the concentration needed to bring the measured effect to its halfway point. The IC50 is the point on the concentration scale where inhibition reaches its midpoint. `CCCC[C@H](NC(=O)[C@H](CCC(=O)O)NC(=O)[C@]1(C)CCCC=CCCCCCC[C@@](C)(NC(=O)[C@H](CCC(=O)O)NC(=O)[C@H](CC(=O)O)NC(=O)[C@@H](NC(=O)[C@H](Cc2ccccc2)NC(C)=O)[C@@H](C)CC)C(=O)N[C@@H](C(C)C)C(=O)N[C@@H](CC(C)C)C(=O)N[C@@H](CCCC)C(=O)N[C@@H](CO)C(=O)N[C@@H](CC(C)C)C(=O)N[C@@H](C(C)C)C(=O)N1)C(=O)N[C@@H](C)C(=O)N[C@@H](CC(C)C)C(N)=O` [SP-195] (Ac-FIDE[R8]VL[Nle]SLV[S5]E[Nle]AL-NH2; staple 5-12): in the assay with HRE-bla ME-180 cells [1], the “18 h Avg % max inhibition at top conc (HIF Rptr-24 hrs normoxia) (μM)” value (“18 h Avg % max inhibition at top conc” for short) is on record as “++++ (≥50: ++++)” and the half-maximal effective concentration (EC50) was no more than 5 µM. In addition, the “Viability 1% FBS AVG (MTT V3-24 hr Normoxia) (μM)” value (“Viability 1% FBS AVG” below) with HRE-bla ME-180 cells [2] was “++ (≤5 but <15: ++)”. Moreover, the 50% inhibitory concentration (IC50) in assay [3] was in the range of 400 to 700 nM.
For the compound `CCCC[C@H](NC(=O)[C@H](C)NC(=O)[C@]1(C)CCCC=CCCCCCC[C@@](C)(NC(=O)[C@H](CCC(=O)O)NC(=O)[C@H](CC(=O)O)NC(=O)[C@@H](NC(=O)[C@H](Cc2ccccc2)NC(C)=O)[C@@H](C)CC)C(=O)N[C@@H](C(C)C)C(=O)N[C@@H](CC(C)C)C(=O)N[C@@H](CCCC)C(=O)N[C@@H](CO)C(=O)N[C@@H](CC(C)C)C(=O)N[C@@H](C(C)C)C(=O)N1)C(=O)N[C@@H](C)C(=O)N[C@@H](CC(C)C)C(=O)N[C@@H](CC(=O)O)C(=O)N[C@@H](C)C(=O)N[C@H](C(N)=O)[C@@H](C)CC` [SP-191] (Ac-FIDE[R8]VL[Nle]SLV[S5]A[Nle]ALDAI-NH2; staple 5-12), in the assay with HRE-bla ME-180 cells [1], the “18 h Avg % max inhibition at top conc” value is listed as “++ (≤10 but <25: ++)” and the EC50 was greater than 30 µM. Also, the “Viability 1% FBS AVG” value in the assay with HRE-bla ME-180 cells [2] was “++++ (≥30: ++++)”. Moreover, the IC50 in assay [3] lay in the range of 200 to 400 nM.
Regarding `CC[C@H](C)[C@H](NC(=O)[C@H](CCCNC(=N)N)NC(=O)[C@H](CC(=O)O)NC(=O)[C@H](CC(C)C)NC(=O)[C@H](C)NC(=O)[C@H](CCSC)NC(=O)[C@]1(C)CCCC=CCCC[C@](C)(NC(=O)[C@H](CCSC)NC(=O)[C@H](Cc2ccccc2)NC(=O)[C@@H](NC(=O)[C@H](CCC(=O)O)NC(=O)[C@H](CCC(=O)O)NC(=O)[C@H](CC(=O)O)NC(=O)[C@@H](NC(=O)[C@H](Cc2ccccc2)NC(C)=O)[C@@H](C)CC)C(C)C)C(=O)N[C@@H](CC(C)C)C(=O)N[C@@H](C(C)C)C(=O)N[C@@H]([C@@H](C)CC)C(=O)N1)C(N)=O` [SP-264] (Ac-FIDEEVFM[S5]LVI[S5]MALDRI-NH2; staple 9-13), in the assay on HRE-bla ME-180 cells [1], the “18 h Avg % max inhibition at top conc” value was “++ (≤10 but <25: ++)” and the EC50 was 15 to 30 µM. For the same compound, the “Viability 1% FBS AVG” value in the assay with HRE-bla ME-180 cells [2] is given as “++++ (≥30: ++++)”. In addition, in assay [3], the half-inhibitory concentration (IC50) was in the range of 400 to 700 nM.
For `CC[C@H](C)[C@H](NC(=O)[C@H](CCCNC(=N)N)NC(=O)[C@H](CC(=O)O)NC(=O)[C@H](CC(C)C)NC(=O)[C@H](C)NC(=O)[C@H](CCSC)NC(=O)[C@]1(C)CCCC=CCCC[C@](C)(NC(=O)[C@H](CCSC)NC(=O)[C@H](Cc2ccccc2)NC(=O)[C@@H](NC(=O)[C@H](C)NC(=O)[C@H](CCC(N)=O)NC(=O)[C@H](CC(=O)O)NC(=O)[C@@H](NC(=O)[C@H](Cc2ccccc2)NC(C)=O)[C@@H](C)CC)C(C)C)C(=O)N[C@@H](CC(C)C)C(=O)N[C@@H](C(C)C)C(=O)N[C@@H]([C@@H](C)CC)C(=O)N1)C(N)=O` [SP-268] (Ac-FIDQAVFM[S5]LVI[S5]MALDRI-NH2; staple 9-13), in that order: “+++ (≤25 but <50: +++)”, greater than 30 µM, “++++ (≥30: ++++)” and greater than 700 nM.
For `CCCC[C@H](NC(=O)[C@H](CCC(=O)O)NC(=O)[C@]1(C)CCCC=CCCCCCC[C@@](C)(NC(=O)[C@H](CCC(=O)O)NC(=O)[C@H](CC(=O)O)NC(=O)[C@@H](NC(=O)[C@H](CC(N)=O)NC(=O)[C@@H](NC(=O)[C@H](CCC(N)=O)NC(=O)[C@]2(C)CCCC=CCCC[C@](C)(NC(=O)[C@H](CC(C)C)NC(=O)[C@H](C)NC(=O)[C@H](CCC(=O)O)NC(=O)CNC(=O)[C@H](CCC(N)=O)NC(=O)[C@H](CC(C)C)NC(=O)[C@H](CC(C)C)NC(C)=O)C(=O)N[C@@H](CCCNC(=N)N)C(=O)N[C@@H](C)C(=O)N[C@@H](CC(C)C)C(=O)N2)C(C)C)[C@@H](C)CC)C(=O)N[C@@H](C(C)C)C(=O)N[C@@H](CC(C)C)C(=O)N[C@@H](CCCC)C(=O)N[C@@H](CO)C(=O)N[C@@H](CC(C)C)C(=O)N[C@@H](C(C)C)C(=O)N1)C(N)=O` [SP-361] (Ac-LLQGEAL[S5]RAL[S5]QVNIDE[R8]VL[Nle]SLV[S5]E[Nle]-NH2; staple 8-12, 19-26), in that order: “++ (≤10 but <25: ++)”, greater than 30 µM, “++++ (≥30: ++++)” and greater than 700 nM.
On the same counts, the results for `CCCC[C@H](NC(=O)[C@H](CCC(=O)O)NC(=O)[C@@H](NC(=O)[C@@H](NC(=O)[C@H](CC(C)C)NC(=O)[C@]1(C)CCCC=CCCC[C@](C)(NC(=O)[C@H](CCC(=O)O)NC(=O)[C@H](CC(=O)O)NC(=O)[C@@H](NC(=O)[C@H](Cc2ccccc2)NC(C)=O)[C@@H](C)CC)C(=O)N[C@@H](C(C)C)C(=O)N[C@@H](CC(C)C)C(=O)N[C@@H](CCCC)C(=O)N1)C(C)C)[C@@H](C)CC)C(=O)N[C@@H](C)C(=O)N[C@@H](CC(C)C)C(=O)N[C@@H](CC(=O)O)C(=O)N[C@@H](CCCNC(=N)N)C(=O)N[C@H](C(N)=O)[C@@H](C)CC` [SP-109] (Ac-FIDE[S5]VL[Nle][S5]LVIE[Nle]ALDRI-NH2; staple 5-9) are “+ (<10: +)”, greater than 30 µM, “++ (≤5 but <15: ++)” and 200 to 400 nM.
Take `CCCC[C@H](NC(=O)[C@H](Cc1ccccc1)NC(=O)[C@@H](NC(=O)[C@H](C)NC(=O)[C@H](CCC(N)=O)NC(=O)[C@H](CC(=O)O)NC(=O)[C@@H](NC(=O)[C@H](Cc1ccccc1)NC(C)=O)[C@@H](C)CC)C(C)C)C(=O)N[C@@]1(C)CCCC=CCCC[C@@](C)(C(=O)N[C@@H](CO)C(=O)N[C@@H](C)C(=O)N[C@@H](CC(C)C)C(=O)N[C@@H](CC(C)C)C(N)=O)NC(=O)[C@H]([C@@H](C)CC)NC(=O)[C@H](C(C)C)NC(=O)[C@H](CC(C)C)NC1=O` [SP-257] (Ac-FIDQAVF[Nle][S5]LVI[S5]SALL-NH2; staple 9-13): in the assay with HRE-bla ME-180 cells [1], the “18 h Avg % max inhibition at top conc” value is given as “++++ (≥50: ++++)” and the 50% effective concentration (EC50) was in the range of 5 to 15 µM. Further, the “Viability 1% FBS AVG” value with HRE-bla ME-180 cells [2] was “++ (≤5 but <15: ++)”. Besides, the IC50 in assay [3] is greater than 700 nM.
For `CCCC[C@H](NC(=O)[C@H](CCC(=O)O)NC(=O)[C@]1(C)CCCC=CCCCCCC[C@@](C)(NC(=O)[C@H](CCC(=O)O)NC(=O)[C@H](C)NC(=O)[C@H](C)NC(=O)[C@H](C)NC(=O)[C@H](C)NC(=O)[C@]2(C)CCCC=CCCCCCC[C@@](C)(NC(=O)[C@H](CCC(=O)O)NC(=O)CNC(=O)[C@H](CCC(N)=O)NC(=O)[C@H](CC(C)C)NC(=O)[C@H](CC(C)C)NC(C)=O)C(=O)N[C@@H](CC(C)C)C(=O)N[C@@H](CC(C)C)C(=O)N[C@@H](CCCNC(=N)N)C(=O)N[C@@H](C)C(=O)N[C@@H](CC(C)C)C(=O)N[C@@H](CC(=O)O)C(=O)N2)C(=O)N[C@@H](C(C)C)C(=O)N[C@@H](CC(C)C)C(=O)N[C@@H](CCCC)C(=O)N[C@@H](CO)C(=O)N[C@@H](CC(C)C)C(=O)N[C@@H](C(C)C)C(=O)N1)C(N)=O` [SP-352] (Ac-LLQGE[R8]LLRALD[S5]AAAAE[R8]VL[Nle]SLV[S5]E[Nle]-NH2; staple 6-13, 19-26), in the assay with HRE-bla ME-180 cells [1], the “18 h Avg % max inhibition at top conc” value is given as “++ (≤10 but <25: ++)” and the EC50 is greater than 30 µM. The “Viability 1% FBS AVG” value in the assay with HRE-bla ME-180 cells [2] is listed as “++++ (≥30: ++++)”. In addition, the half-maximal inhibitory concentration (IC50) in assay [3] was no more than 200 nM.
For `CCCC[C@H](NC(=O)[C@H](CC(C)C)NC(=O)[C@@H](NC(=O)[C@H](CCC(=O)O)NC(=O)[C@H](CCC(=O)O)NC(=O)[C@H](CC(=O)O)NC(=O)[C@@H](NC(=O)[C@H](CC(N)=O)NC(=O)[C@@H](NC(=O)[C@H](CCC(N)=O)NC(=O)[C@H](CC(=O)O)NC(=O)[C@H](CC(C)C)NC(=O)[C@H](C)NC(=O)[C@H](CCCNC(=N)N)NC(=O)[C@]1(C)CCCC=CCCC[C@](C)(NC(=O)[C@H](CCC(N)=O)NC(=O)[C@H](CC(C)C)NC(=O)[C@H](CC(C)C)NC(C)=O)C(=O)N[C@@H](CCC(=O)O)C(=O)N[C@@H](CCC(=O)O)C(=O)N[C@@H](CC(C)C)C(=O)N1)C(C)C)[C@@H](C)CC)C(C)C)C(=O)N[C@@]1(C)CCCC=CCCC[C@@](C)(C(=O)N[C@@H](CCCC)C(=O)NCC(N)=O)NC(=O)[C@H]([C@@H](C)CC)NC(=O)[C@H](C(C)C)NC(=O)[C@H](CC(C)C)NC1=O` [SP-306] (Ac-LLQ[S5]EEL[S5]RALDQVNIDEEVL[Nle][S5]LVI[S5][Nle]G-NH2; staple 4-8, 23-27), in that order: “+++ (≤25 but <50: +++)”, greater than 30 µM, “++++ (≥30: ++++)” and no more than 200 nM.
